We go through 4 compounds from patent US9107415B2, “2-(substituted-phenyl)-cyclopentane-1,3-dione compounds, and derivatives thereof” (Syngenta Limited, priority 2011, dated 2015).

What all share (type): in vivo
In test [1] the test system is Alopecurus myosuroides (ALOMY). Put plainly: Biological Example 1 glasshouse screen, pre-emergence herbicidal activity. The settings on record: 312 h, application rate 250 g/ha, evaluated after 13 days, read-out: ALOMY percentage phytotoxicity. In a few lines: (§1)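 Thirteen days after spraying, each species was given a visual phytotoxicity score (100% = total damage; 0% = none). Application was made one day post-sowing for pre-emergence and after 8 days' cultivation for post-emergence; conditions 24/16°C, 14 h photoperiod, 65% humidity.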

Test [2] concerns Echinochloa crus-galli (ECHCG). The test is described as above. The settings on record: 312 h, application rate 250 g/ha, evaluated after 13 days, read-out: ECHCG percentage phytotoxicity. In a few lines:
as §1

In another test the test system is Avena fatua (AVEFA). The description is as above. The note with it: 312 h, application rate 250 g/ha, evaluated after 13 days, read-out: AVEFA percentage phytotoxicity. In a few lines:
(§2)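 Pots in a glasshouse (24/16°C day/night, 14 h light, 65% humidity) were sprayed one day after sowing (pre-emergence) or after 8 days (post-emergence), using acetone/water (50:50) with 0.5% Tween 20. Phytotoxicity was scored visually as % damage (0-100) 13 days after application.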

In the next test the test system is Lolium perenne (LOLPE). The test is described as above. The settings on record: 312 h, application rate 250 g/ha, evaluated after 13 days, read-out: LOLPE percentage phytotoxicity. In a few lines: as §2
Test [3] deals with Triticum aestivum, wheat (TRZAW). The test is described as follows: Biological Example 3 glasshouse screen, post-emergence, phytotoxicity on wheat. The note with it: 360 h, 15 DAA, no safener, read-out: TRZAW percentage phytotoxicity; for pest or weed control at 30 g/ha: application rate 30 g/ha; for pest or weed control at 60 g/ha: application rate 60 g/ha. In a few lines:
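Plants grown 12 days in glasshouse pots (24/18°C or 20/16°C day/night, 16 h light, 65% humidity), then sprayed with active ingredient in acetone plus IF50 (1:20) in water with 0.2% v/v X-77. No safener used. Visual % phytotoxicity (100% = total damage) scored 15 DAA.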

The test system of test [4] is Lolium multiflorum (LOLMU). Put plainly: Biological Example 4B (not-previously-formulated compounds) post-emergence herbicidal activity on grassy weeds. The settings on record: 14 DAA, technical compound in IF50 + Adigor, mean of two. The procedure:
(§3) Seeds of a variety of test species are sown in standard soil in pots. After cultivation for 14 days under controlled conditions in a glasshouse (at 22/16°C., day/night; 16 hours light; 65% humidity), the plants are sprayed with an aqueous spray solution derived from the formulation of the technical active ingredient dissolved in acetone plus IF50 containing
(§4) 10.56 wt % Emulsogen™EL (castor oil ethoxylate, CAS Registry number 61791-12-6)
(§5) 42.22 wt % N-Methyl pyrrolidone
(§6) 42.22 wt % dipropylene glycol monoethyl ether
(§7) at a 1:20 ratio of (technical active ingredient:IF50). The adjuvant Adigor™(an adjuvant containing inter alia methylated rapeseed oil, e.g. available from Syngenta) is added to form a 0.5% v/v solution. The test plants are then grown on under controlled conditions in the glasshouse (at 22/16°C., day/night; 16 hours light; 65% humidity) and are watered twice daily. After 14 days the test is evaluated (100%=total damage to plant; 0%=no damage to plant).
Post-emergence herbicidal activity (phytotoxicity) data, on certain grassy monocotyledonous weeds and cereal crops in a glasshouse, are measured 14 days after application of the herbicide (14 DAA), for (a) a […] the same time as the herbicide, and (b) for a post-emergence application rate of 30 g/ha of the test herbicide with 50 g/ha of cloquintocet-mexyl safener applied at substantially the same time as the herbicide. Herbicidal activity (phytotoxicity) is evaluated visually, and an assessed percentage phytotoxicity score is given for each herbicidal application on each plant species (with 100%=total damage to plant; 0%=no damage to plant). Two repetitions are made for each experiment, and the mean herbicidal activity (phytotoxicity) data is reported.
Test plants: Avena fatua (AVEFA), Lolium multiflorum (LOLMU), Setaria viridis (SETVI), Poa annua (POAAN), Alopecurus myosuroides (ALOMY). All five of these are grassy monocotyledonous weeds.

In test [5] the test system is Spring Barley “Harrington”. The test is described as follows: Biological Example 4B post-emergence phytotoxicity on cereal crops. The note with it: 14 DAA, technical compound in IF50 + Adigor, mean of two. How it is done:
as §3, §4, §5, §6, §7
Post-emergence herbicidal activity (phytotoxicity) data, on certain grassy monocotyledonous weeds and cereal crops in a glasshouse, are measured 14 days after application of the herbicide (14 DAA), for (a) a post-emergence application rate of 60 g/ha of the test herbicide with or without 50 g/ha of cloquintocet-mexyl safener applied at substantially the same time as the herbicide, and (b) for a post-emergence application rate of 30 g/ha of the test herbicide with 50 g/ha of cloquintocet-mexyl safener applied at substantially the same time as the herbicide. Herbicidal activity (phytotoxicity) is evaluated visually, and an assessed percentage phytotoxicity score is given for each herbicidal application on each plant species (with 100%=total damage to plant; 0%=no damage to plant). Two repetitions are made for each experiment, and the mean herbicidal activity (phytotoxicity) data is reported.

[6] abbreviates: 30 g/ha, cloquintocet-mexyl 50 g/ha.
The mark [7] stands for this setting: 60 g/ha, cloquintocet-mexyl 0 g/ha.
Setting [8] is: 60 g/ha, cloquintocet-mexyl 50 g/ha.

As for `CC#Cc1cc(C)c(C2=C(O)CC(Cc3ccc(C)cn3)C2=O)c(C)c1` (stereo not drawn) [Compound A-8], the pest or weed control at 250 g/ha (in test [1]; in test [2]; in the test with Avena fatua (AVEFA); in the test with Lolium perenne (LOLPE)) was 100% in each case. Besides, the pest or weed control at 30 g/ha in test [3] was determined as 40%. Besides, the LOLMU % phytotoxicity worked out at 68% in test [4] (setting [6]), 92% in test [4] (setting [7]) and 94% in test [4] (setting [8]). Moreover, the “Spring Barley “Harrington” phytotoxicity (%)” value in test [5] (setting [6]) stood at 18%; in test [5] (setting [7]), 85%; in test [5] (setting [8]), 75%.
On to `CC#Cc1cc(C)c(C2=C(O)CC(Cc3ccc(F)cn3)C2=O)c(C)c1` (stereo not drawn) [Compound A-11], for which the pest or weed control at 250 g/ha in test [1] was 90%; in test [2], 100%; with Avena fatua (AVEFA) it was 70%; in the test with Lolium perenne (LOLPE) it was 100%. In test [3], the pest or weed control at 30 g/ha worked out at 40%. Moreover, the pest or weed control at 60 g/ha in test [3] is 50%. Further, the LOLMU % phytotoxicity is reported as 68% in test [4] (setting [6]), 95% in test [4] (setting [7]) and 88% in test [4] (setting [8]). Further, the “Spring Barley “Harrington” phytotoxicity (%)” value amounted to 8% in test [5] (setting [6]), 58% in test [5] (setting [7]) and 13% in test [5] (setting [8]).
As for `CC#Cc1cc(C)c(C2=C(O)CC(Cc3ccc(C#N)cn3)C2=O)c(C)c1` (stereo not drawn) [Compound A-14], the pest or weed control at 250 g/ha is 90% in test [1], 90% in test [2], 50% with Avena fatua (AVEFA) and 90% with Lolium perenne (LOLPE). In test [3], the pest or weed control at 30 g/ha came out at 20%. Moreover, the pest or weed control at 60 g/ha in test [3] came out at 40%. For the same compound, the LOLMU % phytotoxicity is given as 88% in test [4] (setting [6]), 100% in test [4] (setting [7]) and 97% in test [4] (setting [8]). Moreover, the “Spring Barley “Harrington” phytotoxicity (%)” value is on record as 70% in test [5] (setting [6]), 95% in test [5] (setting [7]) and 95% in test [5] (setting [8]).
As for `CC#Cc1cc(C)c(C2C(=O)CC(Cc3ccn(C)n3)C2=O)c(C)c1` (stereo not drawn) [Compound A-19], the pest or weed control at 250 g/ha (in test [1]; in test [2]; in the test on Avena fatua (AVEFA); in the test on Lolium perenne (LOLPE)) was 100% in each case. Besides, in test [3] (application rate 15 g/ha), the pest or weed control at 15 g/ha is 20%. Also, in test [3], the pest or weed control at 30 g/ha was determined as 70%. In addition, the LOLMU % phytotoxicity in test [4] (15 g/ha, cloquintocet-mexyl 50 g/ha) was determined as 98%; in test [4] (setting [6]), 100%; in test [4] (setting [7]) it was 100%; in test [4] (setting [8]) it was 100%. Also, the “Spring Barley “Harrington” phytotoxicity (%)” value in test [5] (setting [6]) is given as 38%; in test [5] (setting [7]) it was 98%; in test [5] (setting [8]), 94%.
